For data set [1], the system named is corn. Nature of the data set: preemergence plant growth test. It is filed as in vivo. The note with it: 2k/ha. From the text:
(§1) The imidazole and triazole compounds of the invention are useful as plant growth modifiers when applied to plants. The compounds are applied to the immediate area where the plant is developing and growing, including preemergence and postemergence application.

In another data set the test system is crabgrass. Nature of the data set: preemergence plant growth test. It is filed as in vivo. The note with it: 2k/ha.
Description: as §1

The test system of data set [2] is rice. The data set is described as follows: preemergence plant growth test. It counts as in vivo. Conditions: 2k/ha.
Description: as §1

Data set [3] has as its system sorghum. The data set is described as follows: preemergence plant growth test. It counts as in vivo. Conditions: 2k/ha.
Description: as §1

Data set [4] deals with soybeans. The data set is described as follows: preemergence plant growth test. Conditions: 2k/ha, soybeans. It is filed as in vivo.
Description: as §1

For data set [5], the system named is wheat. Nature of the data set: preemergence plant growth test. It is filed as in vivo. Conditions: 2k/ha.
Description: as §1

Data set [6] has as its system wild oats. The data set is described as follows: preemergence plant growth test. It is filed as in vivo. The note with it: 2k/ha.
Description: as §1

A further data set deals with bush beans. The data set is described as follows: postemergence plant growth test. It counts as in vivo. Conditions: 2k/ha.
Description: as §1

Data set [7] deals with corn. Nature of the data set: postemergence plant growth test. It is filed as in vivo. Conditions: 2k/ha.
Description: as §1

In the next data set the test system is cotton. Nature of the data set: postemergence plant growth test. It counts as in vivo. Conditions: 2k/ha.
Description: as §1

The subject of data set [8] is morning glory. The data set is described as follows: postemergence plant growth test. It counts as in vivo. Conditions: 2k/ha.
Description: as §1

Data set [9] deals with sorghum. Nature of the data set: postemergence plant growth test. It counts as in vivo. Conditions: 2k/ha.
Description: as §1

The subject of data set [10] is soybeans. The data set is described as follows: postemergence plant growth test. It is filed as in vivo. The note with it: 2k/ha.
Description: as §1

The nature of data set [11]: pKa by titration against aqueous NaOH (half neutralization point), buffer range. It is filed as physicochemical. Conditions: for pKa: dimethylsulfoxide/water, 0.09995N NaOH, half neutralization point; for Buffer Range: range 1 acid:10 salt to 10 acid:1 salt. How it is done: The selected acids listed in Table IX (65-84 mg samples, weighed accurately) were respectively dissolved in a mixture of dimethylsulfoxide (25 ml) and water (10-25 ml) and titrated against 0.09995N aqueous sodium hydroxide using an automatic titrimeter (Metrohm Potentiograph Model E 336). According to the general theory of buffer solutions (A. I. Vogel, "A Textbook of Quantitative Inorganic Analysis, Theory and Practice," Longmans, Green, London (1948)), the following relationship exists in a dilute solution (0.05-0.2M) of a weak acid to which small additions of acid or base are made
pH = pKa + log [Salt]/[Acid]
The pH of the solution is mainly determined by the pKa of the acid, and in general the buffering capacity (ability to withstand pH change upon addition of acid or base) is maintained within the range 1 acid:10 salt to 10 acid:1 salt, a hundred-fold variation of concentration, or a change of two pH units. The buffer ranges of each of the acids is shown in the third column of Table IX. The acids are useful as buffers in weakly acidic solutions.

The next data set relates to barnyard grass. The data set is described as follows: postemergence plant growth test. It is filed as in vivo. Conditions: 2k/ha.
Description: as §1

The test system of data set [12] is cassia. The data set is described as follows: postemergence plant growth test. It counts as in vivo. Conditions: 2k/ha.
Description: as §1

Data set [13] deals with cocklebur. The data set is described as follows: postemergence plant growth test. It counts as in vivo. The note with it: 2k/ha.
Description: as §1

Data set [14] deals with rice. The data set is described as follows: postemergence plant growth test. It is filed as in vivo. Conditions: 2k/ha.
Description: as §1

Data set [15] has as its system nutsedge. Nature of the data set: postemergence plant growth test. It is filed as in vivo. Conditions: 2k/ha.
Description: as §1

Data set [16] relates to wheat. Nature of the data set: postemergence plant growth test. It is filed as in vivo. Conditions: 2k/ha.
Description: as §1

Data set [17] relates to wild oats. The data set is described as follows: postemergence plant growth test. It counts as in vivo. Conditions: 2k/ha.
Description: as §1

Data set [18] deals with cassia. Nature of the data set: preemergence plant growth test. It is filed as in vivo. The note with it: 2k/ha.
Description: as §1

For data set [19], the system named is nutsedge. Nature of the data set: preemergence plant growth test. Conditions: 2k/ha. It is filed as in vivo.
Description: as §1

Data set [20] deals with cocklebur. Nature of the data set: preemergence plant growth test. It counts as in vivo. The note with it: 2k/ha.
Description: as §1

The subject of data set [21] is morning glory. Nature of the data set: preemergence plant growth test. It counts as in vivo. Conditions: 2k/ha.
Description: as §1

Regarding `O=C(O)c1ccccc1-n1cnc(-c2ccc(Cl)cc2)c1` [Example 2, 1-(2-carboxyphenyl)-4-(4-chlorophenyl)imidazole], the epinastic response result in the data set on corn [1] is given as “very strong epinastic responses”; in the data set on crabgrass, “very strong epinastic responses”; in the data set on rice [2] it was “very strong epinastic responses”; with sorghum [3], “very strong response”; in the data set on soybeans [4] it was “very strong epinastic responses”; in the data set with wheat [5], “very strong response”. The epinastic response entry in the data set with wild oats [6] is recorded as “very strong response”; in the data set with bush beans, “epinastic response”; in the data set with corn [7], “epinastic response”; in the data set on cotton, “epinastic response”; with morning glory [8], “epinastic response”; with sorghum [9], “epinastic response”. For the same compound, the axillary stimulation entry in the data set with soybeans [10] was “strong axillary stimulation”.

In turn, `COc1ccc(-c2cn(-c3ccccc3C(=O)O)cn2)cc1` [Example 3, 1-(2-carboxyphenyl)-4-(4-methoxyphenyl)imidazole] displayed a pKa in data set [11] of 5.08. Also, the “Buffer Range” value in data set [11] is reported as 4.1 - 6.1 pH Units. Also, the axillary stimulation result with barnyard grass, in the data set with cassia [12] and in the data set with soybeans [10] was “axillary stimulation” throughout. Moreover, the epinastic response result in the data set with bush beans, in the data set on cassia [12], with cocklebur [13], in the data set with corn [7], in the data set with cotton and in the data set on rice [14] was “epinastic response” in each case. In addition, the epinastic response result in the data set with sorghum [9] and in the data set on soybeans [10] was “epinastic response” in each case.

`Cc1ccc(-c2cn(-c3ccccc3C(=O)O)cn2)cc1` [Example 4, 1-(2-carboxyphenyl)-4-(4-methylphenyl)imidazole] had a pKa in data set [11] of 5.59. For the same compound, the “Buffer Range” value in data set [11] is 4.6 - 6.6 pH Units. Further, the epinastic response result in the data set on corn [1] was “very strong epinastic responses”; in the data set on crabgrass, “very strong epinastic responses”; in the data set with rice [2], “very strong epinastic responses”; with sorghum [3], “moderate to strong response”; with soybeans [4], “very strong epinastic responses”; in the data set with wheat [5], “moderate to strong response”. Besides, the epinastic response entry is “moderate to strong response” with wild oats [6]; “epinastic response” with bush beans; “epinastic response” in the data set on corn [7]; “epinastic response” with cotton; “epinastic response” in the data set on morning glory [8]; “epinastic response” in the data set on sorghum [9]. Moreover, in the data set with soybeans [10], the axillary stimulation entry is given as “strong axillary stimulation”.

Take `O=C(O)c1ccccc1-n1cnc(-c2ccccc2)n1` [Example 5, 1-(2-carboxyphenyl)-3-phenyl-1,2,4-triazole]: the pKa in data set [11] amounted to 5.91. In addition, the “Buffer Range” value in [11] is reported as 4.9 - 6.9 pH Units. The growth result in the data set on barnyard grass, with wheat [16] and in the data set with wild oats [17] was “retarded” each time. Further, the epinastic response result with nutsedge [15], in the data set with rice [14], with sorghum [9] and in the data set with soybeans [10] was “epinastic response” in each case.

In turn, `O=C(O)c1ccccc1-n1cnc(-c2ccc(Cl)cc2)n1` [Example 6, 1-(2-carboxyphenyl)-3-(4-chlorophenyl)-1,2,4-triazole] yielded a pKa in data set [11] of 5.48. The “Buffer Range” value in [11] is recorded as 4.5 - 6.5 pH Units. The epinastic response entry in the data set with cassia [18], with corn [1], in the data set on nutsedge [19], in the data set on rice [2], in the data set with sorghum [3] and with wheat [5] was “epinastic responses” throughout. The epinastic response entry with wild oats [6] was “epinastic responses”.

In [11], `O=C(O)c1ccccc1-n1cnc(-c2ccc(Cl)c(Cl)c2)n1` [Example 7, 1-(2-carboxyphenyl)-3-(3,4-dichlorophenyl)-,2,4-triazole] showed a pKa of 6.19. Further, the “Buffer Range” value in data set [11] is reported as 5.2 - 7.2 pH Units. The epinastic response result in the data set with cassia [18], in the data set with corn [1], with nutsedge [19], in the data set on rice [2], with sorghum [3] and in the data set with wheat [5] was “epinastic responses” throughout. The epinastic response result in the data set with wild oats [6] is recorded as “epinastic responses”.

Regarding `COc1ccc(-c2ncn(-c3ccccc3C(=O)O)n2)cc1` [Example 8, 1-(2-carboxyphenyl)-3-(4-methoxyphenyl)-1,2,4-triazole], the pKa in data set [11] is recorded as 4.73. Also, in [11], the “Buffer Range” value is 3.7 - 5.7 pH Units. Also, the epinastic response entry in the data set with cassia [18], in the data set on corn [1], in the data set with nutsedge [19], in the data set with rice [2], in the data set on sorghum [3] and with wheat [5] was “epinastic responses” each time. For the same compound, the epinastic response result with wild oats [6] was “epinastic responses”.

Take `Cc1ccc(-c2ncn(-c3ccccc3C(=O)O)n2)cc1` [Example 9, 1-(2-carboxyphenyl)-3-(4-methylphenyl)-1,2,4-triazole]: the pKa in data set [11] worked out at 4.81. In addition, in [11], the “Buffer Range” value is on record as 3.8 - 5.8 pH Units. Moreover, the epinastic response result in the data set on cassia [18], in the data set with cocklebur [20], in the data set with morning glory [21], in the data set with nutsedge [19], in the data set on rice [2] and with sorghum [3] was “epinastic response” throughout. Also, the epinastic response entry in the data set on cassia [12], with cocklebur [13], with morning glory [8], in the data set with nutsedge [15], with rice [14] and in the data set with sorghum [9] was “epinastic response” in each case. Also, the growth result in the data set on bush beans is “retarded”.

What is called pKa is the pH at which an ionisable group is half protonated.

For the origin of these results see US4069035A, “1-(2-Carboxyaryl)-3-aryl-1,2,4-triazoles and use as herbicides” (E. I. Du Pont de Nemours and Company, priority 1976, dated 1978).
